Measurements: patent US20140162958A1, “Copolymer-1 Composition and Methods of Use” (priority 2012, published 2014)

Experiments:
[1] = type: in vivo, patient (the inventor)
Experimental: A series of compositions comprising an amount of copolymer-1 and a local anesthetic were generated in order to provide for a formulation that was substantially free of Site Reactions upon injection. Briefly, the methodology involved titrating amounts of an injectable local anesthetic (bupivacaine, 0.5%) to a solution of copolymer-1 (provided as COPAXONE®, 20 mg injectable syringe). […] This percentage of local anesthetic is well below clinical dosages typically used for skin infiltration for pain control (e.g. 0.25%). The composition was stable for over 30 days both at room temperature and when refrigerated.
The composition described in Example 1 (0.2 mL of bupivacaine (at 0.5%) added to 1.0 mL COPAXONE®, 20 mg injectable syringe) was used in this Example.
The inventor, Dr. Robbins, an anesthesiologist and pain management specialist familiar with the use of local anesthetics in procedures such as spinal epidurals, has been diagnosed with multiple sclerosis and has been prescribed COPAXONE® in order to treat the disease. […] Oral pain management (Motrin) and immediate icing of the injection site were ineffective in alleviating the pain associated with the COPAXONE® injection. […]

[2] = test system: 5-hydroxytryptamine (5-HT) induced plasma extravasation; settings: concentration of about 0.083%; cited from earlier work
[3] = test system: experimental autoimmune encephalomyelitis (EAE); settings: in vivo; cited from earlier work
[4] = test system: exacerbating-remitting form of multiple sclerosis; settings: daily injections; cited from earlier work
RRMS patients = settings: 40 mg/mL subcutaneous injection three times a week; cited from earlier work

CC(C)Cc1ccc(C(C)C(=O)O)cc1 (stereo not drawn) [Motrin]
alleviation of the pain associated with the COPAXONE injection ([1]; oral pain management): ineffective

CCCCN1CCCCC1C(=O)Nc1c(C)cccc1C (stereo not drawn) [bupivacaine]
inhibition of 5-HT induced plasma extravasation [2]: greater than 95%

copolymer-1
pain / Site Reactions associated with the treatment ([1]; human, in vivo): skin wheals, immediate pain upon injection and continuing post-injection pain | suppression of EAE [3]: suppress EAE | exacerbations and increases in disability status versus control patients [4]: fewer exacerbations and smaller increases in their disability status | primary endpoint (reducing the annualized relapse rate relative to placebo) (RRMS patients): met its primary endpoint
